Patent publication US9296760B2, “Antibacterial compounds” (JANSSEN SCIENCES IRELAND UC, priority 2012, dated 2016)
Converted amounts (≈) assume the structure as drawn.

Assays:
S. aureus = experiment: Antibacterial susceptibility testing, IC90 determination with 10% human serum; format: cell-based, Staphylococcus aureus; conditions: S. aureus with human serum at final concentration of 10%; for IC90: Staphylococcus aureus, read-out: STA + 10% HS (361.169) IC90
Method: (§1) Antibacterial Susceptibility Testing: IC90 Determination MIC assays were performed by the broth microdilution method in a 96-well format (flat-bottom microtitre plates) with a final volume of 0.1 ml Mueller Hinton broth containing two-fold serial dilutions of compounds and inoculated with 5×10^5 CFU/ml of bacteria (standard inoculum size according to CLSI guidelines). Inhibitors are typically varied over the range of 63 to 0.49 μM. The final DMSO concentration in the assay was 1.25% (maximum tolerable DMSO concentration=6%). In the assays where the effect of human serum on the activity of the compounds against S. aureus was tested, human serum was added at a final concentration of 10%. The plates were incubated at 35° C. for 16-20 hours. At the end of incubation the bacterial growth was quantified fluorometrically. For this, resazurin was added to all wells and the plates were re-incubated. The incubation time is dependent on the type of bacteria. A change in color from blue to pink indicated the growth of bacteria. The fluorescence was read in computer-controlled fluorometer (Fluoroskan Ascent FL, Labsystems) at an excitation wavelength 540 nm and an emission wavelength of 590 nm. The % growth inhibition achieved by the compounds was calculated according to standard methods. The IC90 (expressed in μg/ml) was defined as the 90% inhibitory concentration for bacterial growth. A panel of reference compounds were simultaneously tested for QC approval. The results are depicted in the table(s) below (STA+10% HS).

[1] = tested on: Staphylococcus aureus ATCC 29213; experiment: Antibacterial susceptibility testing, IC90 determination (broth microdilution, resazurin); format: cell-based; conditions: 90% inhibitory concentration for bacterial growth; for STA (361.159) IC90: S. aureus ATCC 29213; for IC90: Staphylococcus aureus, ATCC29213, S. aureus ATCC 29213, read-out: STA (361.159) IC90
Method: Y.2 In Vitro Method for Testing Compounds for Antibacterial Activity Against Various Bacterial Strains
Preparation of Bacterial Suspensions for Susceptibility Testing
The following bacteria were used: Staphylococcus aureus ATCC 29213, methicillin-resistant Staphylococcus aureus (MRSA) ATCC 700788 and Escherichia coli ATCC 35218. The bacteria used in this study were grown overnight in flasks containing 100 ml Mueller-Hinton broth (Difco cat. nr. 0757-17) in sterile de-ionized water, with shaking, at 37° C. Stocks were store at −70° C. until use.
Bacteria were incubated on a tryptic soy agar plate containing 5% sheep blood (Becton Dickinson cat. nr. 254053) for 18-24 hours at 35° C. in aerobic conditions (first passage). For the second passage, fresh Mueller-Hinton broth is inoculated with 5-10 colonies and grown overnight at 35° C. until turbidity (reaching log-phase) in aerobic conditions is reached. The bacterial suspension is then adjusted to 0.5 McFarland density and further diluted 1:100 in Mueller Hinton broth medium. This is used as inoculum.
The result(s) are depicted the table below (for STA ATCC 29213).
Antibacterial Susceptibility Testing: IC90 Determination
as §1, with “MIC” for “Antibacterial Susceptibility Testing: IC90 Determination MIC”, “approval.” for “approval. The results are depicted in the table(s) below (STA+10% HS).”

[2] = biological target: T1, S. aureus ATCC 29213 FabI (Staphylococcus aureus, UniProt Q6GI75); experiment: Staphylococcus aureus FabI enzyme inhibition assay; format: biochemical; conditions: NADH consumption, 30 minutes, read-out: FabI (300.235) IC50 (converted)
T1 sequence (Q6GI75 1-256): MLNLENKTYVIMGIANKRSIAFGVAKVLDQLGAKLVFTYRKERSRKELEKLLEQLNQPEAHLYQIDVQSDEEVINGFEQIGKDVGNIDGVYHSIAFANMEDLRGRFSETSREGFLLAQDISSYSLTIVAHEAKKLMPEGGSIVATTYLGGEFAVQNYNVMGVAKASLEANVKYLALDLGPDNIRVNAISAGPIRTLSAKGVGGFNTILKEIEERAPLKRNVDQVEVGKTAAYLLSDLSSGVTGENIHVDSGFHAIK
Method: Y.1 FabI Enzyme Inhibition: Staphylococcus aureus FabI Enzyme Inhibition Assay
FabI enzyme inhibition assays were carried out in half-area, 384-well microtitre plates. […] The reaction mixtures were incubated for 30 minutes at room temperature and the reaction was stopped by adding 200 mM Tris buffer (pH 9.0) to create a pH-shift. The consumption of NADH was monitored by measuring the change in absorbance at […]. By comparing sample readings to those of negative (absence of compound) and positive (absence of enzyme) controls, the percent inhibition of enzymatic activity of the compounds was determined A best-fit curve is fitted by a minimum of squares method. From this an IC50-value (expressed in μg/ml), resulting in 50% inhibition of enzymatic activity, was obtained.

Human HelaM cells = experiment: Cytotoxicity MTT assay; format: cell-based; conditions: 72 hours
Method: (§2) Cytotoxicity of the compounds was evaluated using the MTT assay. Human HelaM cells grown in 96-well plates were exposed to serial dilutions of the tested compounds (final volume of 0.2 ml) and incubated for 72 hours at 37° C. and 5% CO2 Inhibitors are typically varied over the range of 25 to 0.8 μM. The final DMSO concentration in the assay is 0.5%. MTT (3-(4,5-Dimethylthiazol-2-yl)-2,5-diphenyltetrazolium bromide, a tetrazole) was added and reduced to purple formazan only in living cells. Solubilization of the formazan crystals was achieved by adding 100 μl 2-propanol. Cell viability was determined by measuring the absorbance of the reduced formazan, giving a purple color, at 540 nm and 690 nm. The absorbance measured at 690 nm was automatically subtracted from the absorbance at 540 nm, to eliminate the effects of non-specific absorption. The percent cytotoxicity achieved by the compounds was calculated according to standard methods. Cytotoxicity is reported as CC50, the concentration that causes a 50% reduction in cell viability.
(§3) The results are depicted in the table(s) below (HELAM).

Cytotoxicity MTT assay = format: cell-based, Human; conditions: human, HelaM cells, read-out: HELAM (222.125) CC50
Method: as §2, §3

Compound	STA + 10% HS (361.169) IC90 (S. aureus)	STA (361.159) IC90 [1]	IC50 [2]	melting point	IC90 (S. aureus)	IC90 [1]	HELAM (222.125) CC50 (Human HelaM cells)	CC50 at 72 h (Cytotoxicity MTT assay)
O=C(Nc1ccc(/C=C/C(=O)N2CCC=C(c3ccccc3)CC2)cn1)c1ccccc1 [compound 9]	–	–	1.82 µM	158.31 °C	6.26 µg/mL	0.85 µg/mL (≈ 2.01 µM)	–	4.24 µg/mL (≈ 10 µM)
CC(=O)Nc1ccc(/C=C/C(=O)N2CC=C(c3ccccc3)CCC2)cn1 [compound 12]	–	–	0.609 µM	188 °C	1.9 µg/mL	1.3 µg/mL (≈ 3.6 µM)	–	> 9.08 µg/mL
O=C(Nc1ccc(/C=C/C(=O)N2CCC=C(c3ccccc3)CC2)cn1)c1ccncc1 [compound 13]	–	–	1.25 µM	98 °C	3.08 µg/mL	1.41 µg/mL (≈ 3.32 µM)	–	4.29 µg/mL (≈ 10.1 µM)
O=C(/C=C/c1ccc(NC(=O)C(F)(F)F)nc1)N1CCC=C(c2ccccc2)CC1 [compound 22]	–	–	1.08 µM	159 °C	12.1 µg/mL	11.6 µg/mL (≈ 27.9 µM)	–	8.01 µg/mL (≈ 19.3 µM)
CC(C)C(=O)Nc1ccc(/C=C/C(=O)N2CCC=C(c3ccccc3)CC2)cn1 [compound 19]	–	–	1.28 µM	158 °C	20.9 µg/mL	6.32 µg/mL (≈ 16.2 µM)	–	8.52 µg/mL (≈ 21.9 µM)

Now from value to compound, other results behind:

STA + 10% HS (361.169) IC90 (S. aureus)	STA (361.159) IC90 [1]	IC50 [2]	melting point	IC90 (S. aureus)	IC90 [1]	Compound	HELAM (222.125) CC50 (Human HelaM cells)	CC50 at 72 h (Cytotoxicity MTT assay)
0.60 µg/mL	0.53 µg/mL	0.721 µM	–	–	–	CN1CC(=O)Nc2ncc(/C=C/C(=O)N3CCC=C(c4ccccc4)CC3)cc2C1 [compound 40]	24.25 µg/mL	–
–	–	1.11 µM	224.06 °C	1.23 µg/mL	0.39 µg/mL (≈ 0.847 µM)	O=C1Nc2ncc(/C=C/C(=O)N3CCC=C(c4ccccc4)CC3)cc2CN2CCSCC12 (stereo not drawn) [compound 49]	–	4.88 µg/mL (≈ 10.6 µM)
–	–	0.82 µM	198.79 °C	0.46 µg/mL	0.5 µg/mL (≈ 1.24 µM)	CN1CC(=O)Nc2ncc(/C=C/C(=O)N3CCC=C(c4ccccc4)CC3)cc2C1 [compound 38]	>10.11 µg/mL	–
0.45 µg/mL	0.46 µg/mL	0.747 µM	–	–	–	O=C1CNCc2cc(/C=C/C(=O)N3CCC=C(c4ccccc4)CC3)cnc2N1 [compound 36]	>19.47 µg/mL	–
–	–	21.4 µM	206 °C	4.75 µg/mL	6.56 µg/mL (≈ 14.8 µM)	O=C1Nc2ncc(/C=C/C(=O)N3CCC=C(c4ccccc4)CC3)cc2CN2CCNCC12 (stereo not drawn) [compound 52]	–	> 11.1 µg/mL
